{"source": "patent US12077503B2", "about": "“Substituted cyclic amides and their use as herbicides” (FMC CORPORATION, priority 2015, dated 2024)", "assay_type_in_all_cases": "in vivo", "key": {"[1]": {"tested_on": "Galium (catchweed bedstraw, Galium aparine)", "assay": "Test A postemergence", "details": "Galium, post-emergence, 240 h; for pest or weed control at 125 g/ha: 125 g ai/ha, read-out: Galium plant response rating (0 to 100 scale); for pest or weed control at 500 g/ha: 500 g ai/ha", "summary_of_the_method": "(§1)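 Preemergence directed soil spray on seeded pots, or postemergence application to plants 2–10 cm, one- to two-leaf. Solvent mixture non-phytotoxic, with surfactant. Scored ~10 d later, visually, 0–100 vs untreated.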"}, "[2]": {"tested_on": "barnyardgrass (Echinochloa crus-galli)", "assay": "Test A postemergence", "details": "Echinochloa crus-galli, post-emergence, 240 h; for pest or weed control at 125 g/ha: 125 g ai/ha; for pest or weed control at 500 g/ha: 500 g ai/ha", "summary_of_the_method": "as §1"}, "[3]": {"tested_on": "blackgrass (Alopecurus myosuroides)", "assay": "Test A postemergence", "details": "Alopecurus myosuroides, post-emergence, 240 h; for pest or weed control at 125 g/ha: 125 g ai/ha, read-out: Blackgrass plant response rating (0 to 100 scale); for pest or weed control at 500 g/ha: 500 g ai/ha", "summary_of_the_method": "as §1"}, "corn (Zea mays)": {"tested_on": "corn (Zea mays)", "assay": "Test A postemergence", "details": "Zea mays, post-emergence, 240 h; for plant injury at 125 g/ha: 125 g ai/ha, read-out: Corn plant response rating (0 to 100 scale)", "summary_of_the_method": "as §1"}, "[4]": {"tested_on": "giant foxtail (Setaria faberii)", "assay": "Test A postemergence", "details": "Setaria faberi, post-emergence, 240 h; for pest or weed control at 125 g/ha: 125 g ai/ha, read-out: Foxtail, Giant plant response rating (0 to 100 scale); for pest or weed control at 500 g/ha: 500 g ai/ha", "summary_of_the_method": "as §1"}, "[5]": {"tested_on": "pigweed (Amaranthus retroflexus)", "assay": "Test A postemergence", "details": "Amaranthus retroflexus, post-emergence, 240 h; for pest or weed control at 125 g/ha: 125 g ai/ha, read-out: Pigweed plant response rating (0 to 100 scale); for pest or weed control at 500 g/ha: 500 g ai/ha", "summary_of_the_method": "as §1"}, "[6]": {"tested_on": "ragweed (common ragweed, Ambrosia elatior)", "assay": "Test A postemergence", "details": "Ambrosia artemisiifolia, post-emergence, 240 h; for pest or weed control at 125 g/ha: 125 g ai/ha, read-out: Ragweed plant response rating (0 to 100 scale); for pest or weed control at 500 g/ha: 500 g ai/ha", "summary_of_the_method": "as §1"}, "[7]": {"tested_on": "ryegrass, Italian (Italian ryegrass, Lolium multiflorum)", "assay": "Test A postemergence", "details": "Lolium multiflorum, post-emergence, 240 h; for pest or weed control at 125 g/ha: 125 g ai/ha, read-out: Ryegrass, Italian plant response rating (0 to 100 scale); for pest or weed control at 500 g/ha: 500 g ai/ha", "summary_of_the_method": "as §1"}, "[8]": {"tested_on": "wheat (Triticum aestivum)", "assay": "Test A postemergence", "details": "Triticum aestivum, post-emergence, 240 h; for plant injury at 125 g/ha: 125 g ai/ha, read-out: Wheat plant response rating (0 to 100 scale); for plant injury at 500 g/ha: 500 g ai/ha", "summary_of_the_method": "as §1"}, "[9]": {"tested_on": "barnyardgrass (Echinochloa crus-galli)", "assay": "Test B flooded paddy test", "details": "Echinochloa crus-galli, 250 g ai/ha, Flood", "summary_of_the_method": "(§2)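 2-leaf plants; pots flooded 3 cm over soil; cpd added to paddy water; depth held; greenhouse 13–15 d; visual rating vs controls, 0 = no effect, 100 = complete control.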"}, "[10]": {"tested_on": "ducksalad (Heteranthera limosa)", "assay": "Test B flooded paddy test", "details": "Heteranthera limosa, 250 g ai/ha, Flood", "summary_of_the_method": "as §2"}, "rice (Oryra sativa)": {"tested_on": "rice (Oryra sativa)", "assay": "Test B flooded paddy test", "details": "Oryza sativa, 250 g ai/ha, Flood", "summary_of_the_method": "as §2"}, "[11]": {"tested_on": "sedge, umbrella (small-flower umbrella sedge, Cyperus difformis)", "assay": "Test B flooded paddy test", "details": "Cyperus difformis, 250 g ai/ha, Flood", "summary_of_the_method": "as §2"}, "[12]": {"details": "postemergence, visual injury vs untreated controls after approx. 10 d, 0 = no effect, 100 = complete control"}, "[13]": {"details": "Postemergence, visual rating about 10 d after treatment"}}, "note": "Where two headings read alike, the source gives them in different places.", "data": [{"molecule": "Cc1ccc([C@H]2CCN(C)C(=O)[C@@H]2C(=O)Nc2cccc(F)c2F)cc1", "note": "[Compound 1220]", "values": [{"measurement": "pest or weed control at 125 g/ha", "setting": "[1]; [12]", "value": 30, "unit": "%"}, {"measurement": "pest or weed control at 500 g/ha", "setting": "[1]; postemergence, 0 to 100 scale, 0 is no effect, 100 is complete control, read-out: Galium plant response rating", "value": 40, "unit": "%"}, {"measurement": "pest or weed control at 125 g/ha", "setting": "[2]; postemergence, visual injury vs untreated controls after approx. 10 d, 0 = no effect, 100 = complete control, read-out: Barnyardgrass plant response rating (0 to 100 scale)", "value": 70, "unit": "%"}, {"measurement": "pest or weed control at 500 g/ha", "setting": "[2]; postemergence, 0 to 100 scale, 0 is no effect, 100 is complete control, read-out: Barnyardgrass plant response rating", "value": 80, "unit": "%"}, {"measurement": "pest or weed control at 125 g/ha", "setting": "[3]; [12]", "value": 30, "unit": "%"}, {"measurement": "pest or weed control at 500 g/ha", "setting": "[3]; postemergence, 0 to 100 scale, 0 is no effect, 100 is complete control, read-out: Blackgrass plant response rating", "value": 40, "unit": "%"}, {"measurement": "plant injury at 125 g/ha", "setting": "corn (Zea mays); [12]", "value": 30, "unit": "%"}, {"measurement": "plant injury at 500 g/ha", "setting": "corn (Zea mays); 500 g ai/ha, postemergence, 0 to 100 scale, 0 is no effect, 100 is complete control, read-out: Corn plant response rating", "value": 70, "unit": "%"}, {"measurement": "pest or weed control at 125 g/ha", "setting": "[4]; [12]", "value": 80, "unit": "%"}, {"measurement": "pest or weed control at 500 g/ha", "setting": "[4]; postemergence, 0 to 100 scale, 0 is no effect, 100 is complete control, read-out: Foxtail, Giant plant response rating", "value": 80, "unit": "%"}, {"measurement": "pest or weed control at 125 g/ha", "setting": "[5]; [12]", "value": 20, "unit": "%"}, {"measurement": "pest or weed control at 500 g/ha", "setting": "[5]; postemergence, 0 to 100 scale, 0 is no effect, 100 is complete control, read-out: Pigweed plant response rating", "value": 20, "unit": "%"}, {"measurement": "pest or weed control at 125 g/ha", "setting": "[6]; [12]", "value": 20, "unit": "%"}, {"measurement": "pest or weed control at 500 g/ha", "setting": "[6]; postemergence, 0 to 100 scale, 0 is no effect, 100 is complete control, read-out: Ragweed plant response rating", "value": 30, "unit": "%"}, {"measurement": "pest or weed control at 125 g/ha", "setting": "[7]; [12]", "value": 20, "unit": "%"}, {"measurement": "pest or weed control at 500 g/ha", "setting": "[7]; postemergence, 0 to 100 scale, 0 is no effect, 100 is complete control, read-out: Ryegrass, Italian plant response rating", "value": 30, "unit": "%"}, {"measurement": "plant injury at 125 g/ha", "setting": "[8]; [12]", "value": 20, "unit": "%"}, {"measurement": "plant injury at 500 g/ha", "setting": "[8]; postemergence, 0 to 100 scale, 0 is no effect, 100 is complete control, read-out: Wheat plant response rating", "value": 40, "unit": "%"}, {"measurement": "pest or weed control at 250 g/ha", "setting": "[9]; 0 to 100 scale where 0 is no effect and 100 is complete control, read-out: Barnyardgrass plant response rating", "value": 70, "unit": "%"}, {"measurement": "pest or weed control at 250 g/ha", "setting": "[10]; 0 to 100 scale where 0 is no effect and 100 is complete control, read-out: Ducksalad plant response rating", "value": 95, "unit": "%"}, {"measurement": "pest or weed control at 250 g/ha", "setting": "rice (Oryra sativa); 0 to 100 scale where 0 is no effect and 100 is complete control, read-out: Rice plant response rating", "value": 10, "unit": "%"}, {"measurement": "pest or weed control at 250 g/ha", "setting": "[11]; 0 to 100 scale where 0 is no effect and 100 is complete control, read-out: Sedge, Umbrella plant response rating", "value": 0, "unit": "%"}]}, {"molecule": "Cc1ccc([C@H]2CN(C)C(=O)[C@@H]2C(=O)Nc2ccc(F)c(F)c2F)cc1", "note": "[Compound 1378]", "values": [{"measurement": "pest or weed control at 125 g/ha", "setting": "[1]; [13]", "value": 60, "unit": "%"}, {"measurement": "pest or weed control at 500 g/ha", "setting": "[1]; Postemergence, visual injury, 0 to 100 scale (0 no effect, 100 complete control), approx. 10 d, read-out: Plant response rating, Galium", "value": 70, "unit": "%"}, {"measurement": "pest or weed control at 125 g/ha", "setting": "[2]; Postemergence, visual rating about 10 d after treatment, read-out: Barnyardgrass plant response rating (0 to 100 scale, 0 no effect, 100 complete control)", "value": 80, "unit": "%"}, {"measurement": "pest or weed control at 500 g/ha", "setting": "[2]; Postemergence, visual injury, 0 to 100 scale (0 no effect, 100 complete control), approx. 10 d, read-out: Plant response rating, Barnyardgrass", "value": 80, "unit": "%"}, {"measurement": "pest or weed control at 125 g/ha", "setting": "[3]; [13]", "value": 30, "unit": "%"}, {"measurement": "pest or weed control at 500 g/ha", "setting": "[3]; Postemergence, visual injury, 0 to 100 scale (0 no effect, 100 complete control), approx. 10 d, read-out: Plant response rating, Blackgrass", "value": 40, "unit": "%"}, {"measurement": "plant injury at 125 g/ha", "setting": "corn (Zea mays); [13]", "value": 80, "unit": "%"}, {"measurement": "Corn plant response rating (crop injury, 0 = no effect, 100 = complete kill) at 500 g/ha", "setting": "corn (Zea mays); Postemergence, 500 g ai/ha, visual injury, 0 to 100 scale (0 no effect, 100 complete control), approx. 10 d", "value": 80, "unit": "%"}, {"measurement": "pest or weed control at 125 g/ha", "setting": "[4]; [13]", "value": 80, "unit": "%"}, {"measurement": "pest or weed control at 500 g/ha", "setting": "[4]; Postemergence, visual injury, 0 to 100 scale (0 no effect, 100 complete control), approx. 10 d, read-out: Plant response rating, Foxtail, Giant", "value": 90, "unit": "%"}, {"measurement": "pest or weed control at 125 g/ha", "setting": "[5]; [13]", "value": 30, "unit": "%"}, {"measurement": "pest or weed control at 500 g/ha", "setting": "[5]; Postemergence, visual injury, 0 to 100 scale (0 no effect, 100 complete control), approx. 10 d, read-out: Plant response rating, Pigweed", "value": 70, "unit": "%"}, {"measurement": "pest or weed control at 125 g/ha", "setting": "[6]; [13]", "value": 40, "unit": "%"}, {"measurement": "pest or weed control at 500 g/ha", "setting": "[6]; Postemergence, visual injury, 0 to 100 scale (0 no effect, 100 complete control), approx. 10 d, read-out: Plant response rating, Ragweed", "value": 70, "unit": "%"}, {"measurement": "pest or weed control at 125 g/ha", "setting": "[7]; [13]", "value": 40, "unit": "%"}, {"measurement": "pest or weed control at 500 g/ha", "setting": "[7]; Postemergence, visual injury, 0 to 100 scale (0 no effect, 100 complete control), approx. 10 d, read-out: Plant response rating, Ryegrass, Italian", "value": 60, "unit": "%"}, {"measurement": "plant injury at 125 g/ha", "setting": "[8]; [13]", "value": 60, "unit": "%"}, {"measurement": "plant injury at 500 g/ha", "setting": "[8]; Postemergence, visual injury, 0 to 100 scale (0 no effect, 100 complete control), approx. 10 d, read-out: Plant response rating, Wheat", "value": 70, "unit": "%"}, {"measurement": "pest or weed control at 250 g/ha", "setting": "[9]; 360 h, visually evaluated after 13 to 15 d, read-out: Plant response rating, Barnyardgrass (0 to 100 scale where 0 is no effect and 100 is complete control)", "value": 85, "unit": "%"}, {"measurement": "pest or weed control at 250 g/ha", "setting": "[10]; 360 h, visually evaluated after 13 to 15 d, read-out: Plant response rating, Ducksalad (0 to 100 scale where 0 is no effect and 100 is complete control)", "value": 95, "unit": "%"}, {"measurement": "pest or weed control at 250 g/ha", "setting": "rice (Oryra sativa); 360 h, visually evaluated after 13 to 15 d, read-out: Plant response rating, Rice (0 to 100 scale where 0 is no effect and 100 is complete control)", "value": 45, "unit": "%"}, {"measurement": "pest or weed control at 250 g/ha", "setting": "[11]; 360 h, visually evaluated after 13 to 15 d, read-out: Plant response rating, Sedge, Umbrella (0 to 100 scale where 0 is no effect and 100 is complete control)", "value": 0, "unit": "%"}]}]}
